Measured values as given in patent publication US20180207249A1, “METHOD AND VACCINE COMPRISING COPOLYMER 1 FOR TREATMENT OF PSYCHIATRIC DISORDERS” (YEDA RESEARCH AND DEVELOPMENT CO. LTD., priority 2003, published 2018).
Counter-ions that a name gives are not always drawn.

B1: ovalbumin (protein, UniProt P01012 2-386, looked up)
Ovalbumin: GSIGAASMEFCFDVFKELKVHHANENIFYCPIAIMSALAMVYLGAKDSTRTQINKVVRFDKLPGFGDSIEAQCGTSVNVHSSLRDILNQITKPNDVYSFSLASRLYAEERYPILPEYLQCVKELYRGGLEPINFQTAADQARELINSWVESQTNGIIRNVLQPSSVDSQTAMVLVNAIVFKGLWEKAFKDEDTQAMPFRVTEQESKPVQMMYQIGLFRVASMASEKMKILELPFASGTMSMLVLLPDEVSGLEQLESIINFEKLTEWTSSNVMEERKIKVYLPRMKMEEKYNLTSVLMAMGITDVFSSSANLSGISSAESLKISQAVHAAHAEINEAGREVVGSAEAGVDAASVSEEFRADHPFLFCIKHIATNAVLFFGRCVSP
B2: myelin basic protein (protein, UniProt P02686 1-304, looked up)
Myelin basic protein: MGNHAGKRELNAEKASTNSETNRGESEKKRNLGELSRTTSEDNEVFGEADANQNNGTSSQDTAVTDSKRTADPKNAWQDAHPADPGSRPHLIRLFSRDAPGREDNTFKDRPSESDELQTIQEDSAATSESLDVMASQKRPSQRHGSKYLATASTMDHARHGFLPRHRDTGILDSIGRFFGGDRGAPKRGSGKDSHHPARTAHYGSLPQKSHGRTQDENPVVHFFKNIVTPRTPPPSQGKGRGLSLSRFSWGAEGQRPGFGYGGRASDYKSAHKGFKGVDAQGTLSKIFKLGGRDSRSGSPMARR

Experiments:
[1] = system: C57BL/6J mice injected with MK-801 or AMPH; test: Morris water maze (MWM) spatial learning/memory task after psychotomimetic drug; type: in vivo, mouse; settings: C57BL/6J mice; MK-801 0.1 mg/kg i.p. or AMPH 2.5 mg/kg i.p.; relative to naive normal mice
Method: (§1) (iii) Immunization. Each animal was injected with a total of 100 μg of Cop-1 emulsified in an equal volume of complete Freund's adjuvant (CPA) containing 5 mg/ml of Mycobacteria H37 RA (Difco). The emulsion, in a total volume of 0.1 mL, was injected into the flank 1 week before the mouse was first injected with a psychotomimetic drug. Control mice were injected with an equal volume of phosphate-buffered saline (PBS) emulsified in CFA.
(vi) Drug solutions. Fresh solutions of dizocilpine maleate (MK-801; Sigma-Aidrich) were prepared in physiological saline (0.9% NaCl in sterile distilled water) for each batch of mice. Physiological saline was also used as a vehicle for D-amphetamine sulfate (AMPH: Sigma). MK-801. (0.1 mg/kg) or AMPH (2.5 mg/kg) or sahne was injected i.p., in a total volume of 5 ml per kg of body weight. Mice were injected with MK-801, AMPH, or vehicle 15 min before being subjected to behavioral tests.
(vii) Morris water maze (MWM) behavioral test. Spatial learning/memory was assessed by performance on a hippocampal-dependent visuospatial learning task in the MWM. Mice were given four trials per day, for four consecutive days, to find a hidden platform located 1.5 cm below the water surface in a pool 1.4 m in diameter. Within the testing room only distal visuo-spatial cues were available to the mice for location of the submerged platform. The escape latency, i.e., the time required by the mouse to find and climb onto the platform, was recorded for up to 60 s. Each mouse was allowed to remain on the platform for 30 s, and was then moved from the maze to its home cage. […] The inter-trial interval was 30 s. On day 5, the platform was removed from the pool, and each mouse was tested by a probe trial for 60 s. On days 6-7 the platform was placed at the opposite, location, and the mouse was retrained in four sessions. Data were recorded by using an EthoVision automated tracking system (Noldus Information Technology, Wageningen, The Netherlands). […]

[2] = system: C57BL/6J mice injected with MK-801 or AMPH; test: Prepulse inhibition (PPI) of the acoustic startle response after psychotomimetic drug; type: in vivo, mouse; settings: vehicle (PBS/CFA)-immunized C57BL/6J mice; MK-801 0.1 mg/kg i.p. or AMPH 2.5 mg/kg i.p.
Method: as §1
(vi) Drug solutions. Fresh solutions of dizocilpine maleate (MK-801; Sigma-Aidrich) were prepared in physiological saline (0.9% NaCl in sterile distilled water) for each batch of mice. […]
(viii) Prepulse inhibition (PPT). […] Acoustic PPI was measured by prepuise plus pulse trials consisting of a 2-ms prepuise, 100 ms delay, and then a 40-ms, 120-dB startle pulse. […]
PPI was calculated as a percentage score for each acoustic prepulse trial type: % PPI=100. {[(startle response for prepuise+pulse)/(startle response for pulse-alone)]×100}. The magnitude of the acoustic startle response was calculated as the average response to all of the pulse-alone trials, excluding the first and last blocks of five pulse-alone trials each. […]
(xi) Acoustic startle response (ASR). […] The ASR and pre-pulse inhibition were measured using two ventilated startle chambers (SR-LAB system, San Diego Instruments, San Diego, Calif.). […] These readings (signals) were digitized and stored in a computer. […]

Cop-1-reactive T cells = test: ELISA of BDNF secreted by Cop-1-reactive T cells; type: cell-based, Lewis rats; settings: 48 h stimulation with antigen; for BDNF secreted by Cop-1-reactive T cells (mean): mean of three independent experiments, no antigen 400
Method: (iv) T-cell lines. Ten days after Cop-1 immunization, T-cell lines were generated from draining lymph node cells obtained from Lewis rats immunized with Cop-1 emulsified in CFA. The lymph nodes were surgically removed, dissociated, washed, and then activated with the antigen (10 μg/ml) in stimulation medium as previously reported (Kipnis et al., 2000). The T-cells lines were expanded by repeated stimulation and propagation.
(v) Enzyme-linked immunosorbent assay. T cell-reactive Cop-1 cells were grown for 1 week in a propagation medium, then washed with PBS and re-suspended in stimulation medium. The cultured T cells (0.5×10^6 cells/mL) were then incubated, in the presence of irradiated thymocytes (10^7 cells/mL), with concanavalin A (Con A; 1.25 μg/mL), myelin basic protein (MRP; 10 μg/ml), Cop-1 (10 μg/mL), ovalbumin (OVA; 10 μg/mL), or no antigen, in stimulation medium. After 48 h the cells were centrifaged and their supernatants were collected and sampled. Concentrations of brain-derived neurotrophic factor (BDNF) in the samples were determined with a sensitive sandwich ELISA. In brief 96-well flat-bottomed plates were coated with a chicken anti-human BDNF antibody (Promega, Madison, Wis.) in 0.025 M NaHCO3 and 0.025 M Na2CO3 (pH 8.2). Recombinant human BDNF (used as a standard; Research Diagnostics, Flanders, N.J.) was used in serial dilutions in blocking solution containing 3% bovine serum albumin, 0.05% polyoxyethylene-sorbitan monolaurate (Tween-20), and 1% fetal calf serum in PBS (pH 8.2). Bound BDNF was detected by incubating the plates with a mouse anti-human BDNF antibody (Research Diagnostics) and then with peroxidase-conjugated goat anti-mouse IgG (Jackson ImmunoResearch, West Grove, Pa.) in blocking solution. The plates were developed using a 3,3′,5,5′-tetramethylbenzidine liquid substrate system (Sigma-Aldrich). The reaction was stopped by adding 1M H3PO4, and the optical density was determined at 450 nm. Results for each experiment were calculated as the amount of secreted BDNF per 1 mL of sample, after subtraction of background levels of the irradiated thymocytes incubated with the stimulation medium.
Cop-1-reactive T cells were cultured for 48 h with Cop-1, MBP, ovalbumin, or concanavalin A in stimulation medium. T cell supernatants were collected and subjected to sandwich ELISA. […] Values are mean values (pg/ml) +/− SE (from three independent experiments) of the amounts of BDNF secreted by Cop-1-specific T cells in response to stimulation by various antigens.

| Molecule | Effect of psychotomimetic drug on MWM spatial learning and memory performance [1] | Effect of psychotomimetic drug on PPI of the ASR [2] | BDNF secreted by Cop-1-reactive T cells (mean) (Cop-1-reactive T cells) [pg/mL] | Secretion of BDNF by Cop-1-reactive T cells compared with unstimulated T cells (Cop-1-reactive T cells) |
| --- | --- | --- | --- | --- |
| C[C@]12N[C@H](Cc3ccccc31)c1ccccc12 [MK-801, (+)dizocilpine maleate] | significantly impaired | significantly disrupted PPI |  |  |
| C[C@H](N)Cc1ccccc1 [AMPH, D-amphetamine sulfate] | significantly impaired | significantly disrupted PPI |  |  |
| concanavalin A [Con A] |  |  | 1100 |  |
| B1 |  |  | 440 |  |
| B2 |  |  | 1500 | significantly increased |
